In patent US20140343049A1, “DIHYDROFURAN DERIVATIVES AS INSECTICIDAL COMPOUNDS” (SYNGENTA PARTICIPATIONS AG, priority 2011, published 2014):

How the values were obtained:
Assay type in all cases: in vivo
[1] = test system: Diabrotica balteata (corn root worm); assay: Diabrotica balteata L2 larvae test on artificial diet; details: 120 h, 200 ppm (concentration in well 18 ppm), 5 days, larval mortality and growth regulation
Procedure: (§1) A 24-well microtiter plate (MTP) with artificial diet was treated with test solutions at an application rate of 200 ppm (concentration in well 18 ppm) by pipetting. After drying, the MTPs were infested with L2 larvae (6-10 per well). After an incubation period of 5 days, samples were checked for larval mortality and growth regulation.
as §1, with “12.5” for “200”, “MTP's” for “MTPs”

[2] = test system: Heliothis virescens (tobacco budworm); assay: Heliothis virescens egg test on artificial diet; details: 96 h, 200 ppm (concentration in well 18 ppm), eggs 0-24 h old, 4 days, egg mortality, larval mortality, growth regulation
Procedure: Eggs (0-24 h old) were placed in 24-well microtiter plate on artificial diet and treated with test solutions at an application rate of 200 ppm (concentration in well 18 ppm) by pipetting. After an incubation period of 4 days, samples were checked for egg mortality, larval mortality, and growth regulation.

[3] = test system: Plutella xylostella (diamond back moth); assay: Plutella xylostella L2 larvae test on artificial diet; details: 144 h, 200 ppm (concentration in well 18 ppm), 6 days, larval mortality and growth regulation
Procedure: as §1, with “24-well” for “A 24-well”, “(7-12” for “(6-10”, “6” for “5”

[4] = test system: Spodoptera littoralis (Egyptian cotton leafworm); assay: Spodoptera littoralis cotton leaf disc spray test; details: foliar, 72 h, cotton leaf discs sprayed at 200 ppm, 5 L1 larvae, mortality, feeding behavior, growth regulation 3 days after treatment
Source text: Cotton leaf discs were placed on agar in a 24-well microtiter plate and sprayed with test solutions at an application rate of 200 ppm. After drying, the leaf discs were infested with 5 L1 larvae. The samples were checked for mortality, feeding behavior, and growth regulation 3 days after treatment (DAT).

Row | Structure (SMILES) | pest or weed control at 200 ppm [1] | pest or weed control at 200 ppm [2] | pest or weed control at 200 ppm [3] | pest or weed control at 200 ppm [4]
1 | CCCCNC(=O)c1ccc(C2=CC(c3cc(Cl)cc(Cl)c3)(C(F)(F)F)OC2)cc1C (centres unmarked) [Compound A5] | ≥ 80% | ≥ 80% | ≥ 80% | ≥ 80%
2 | COCC(C)NC(=O)c1ccc(C2=CC(c3cc(Cl)cc(Cl)c3)(C(F)(F)F)OC2)cc1C (centres unmarked) [Compound A6] | ≥ 80% | ≥ 80% | ≥ 80% | ≥ 80%
3 | Cc1cc(C2=CC(c3cc(Cl)cc(Cl)c3)(C(F)(F)F)OC2)ccc1C(=O)NCC1CCCO1 (centres unmarked) [Compound A7] | ≥ 80% | ≥ 80% | ≥ 80% | ≥ 80%
4 | Cc1cc(C2=CC(c3cc(Cl)cc(Cl)c3)(C(F)(F)F)OC2)ccc1C(=O)NCc1ccccc1 (centres unmarked) [Compound A8] | ≥ 80% | – | – | –
5 | Cc1cc(C2=CC(c3cc(Cl)cc(Cl)c3)(C(F)(F)F)OC2)ccc1C(=O)NC1CCSC1=O (centres unmarked) [Compound A21] | ≥ 80% | ≥ 80% | ≥ 80% | ≥ 80%
6 | Cc1cc(C2=CC(c3cc(Cl)cc(Cl)c3)(C(F)(F)F)OC2)ccc1C(=O)NC1CCCCC1C (centres unmarked) [Compound A32] | ≥ 80% | – | ≥ 80% | –
7 | Cc1cc(C2=CC(c3cc(Cl)cc(Cl)c3)(C(F)(F)F)OC2)ccc1C(=O)NCCc1ccccc1 (centres unmarked) [Compound A39] | ≥ 80% | ≥ 80% | ≥ 80% | –
8 | Cc1cc(C2=CC(c3cc(Cl)cc(Cl)c3)(C(F)(F)F)OC2)ccc1C(=O)NCCc1cccs1 (centres unmarked) [Compound A41] | ≥ 80% | – | ≥ 80% | –
9 | Cc1cc(C2=CC(c3cc(Cl)cc(Cl)c3)(C(F)(F)F)OC2)ccc1C(=O)NCCOc1ccccc1 (centres unmarked) [Compound A42] | ≥ 80% | ≥ 80% | – | ≥ 80%
10 | Cc1cc(C2=CC(c3cc(Cl)cc(Cl)c3)(C(F)(F)F)OC2)ccc1C(=O)NCc1ccccc1C(F)(F)F (centres unmarked) [Compound A48] | ≥ 80% | – | – | –
11 | Cc1cc(C2=CC(c3cc(Cl)cc(Cl)c3)(C(F)(F)F)OC2)ccc1C(=O)NCc1ccccc1N1CCCCC1 (centres unmarked) [Compound A50] | ≥ 80% | – | – | –
12 | Cc1cc(C2=CC(c3cc(Cl)cc(Cl)c3)(C(F)(F)F)OC2)ccc1C(=O)NC1CCN(Cc2ccccc2)C1 (centres unmarked) [Compound A53] | ≥ 80% | – | – | ≥ 80%
13 | Cc1cc(C2=CC(c3cc(Cl)cc(Cl)c3)(C(F)(F)F)OC2)ccc1C(=O)NCCN1CCN(Cc2ccccc2)CC1 (centres unmarked) [Compound A54] | ≥ 80% | ≥ 80% | – | –
14 | Cc1cc(C2=CC(c3cc(Cl)cc(Cl)c3)(C(F)(F)F)OC2)ccc1C(=O)NCc1ccco1 (centres unmarked) [Compound A55] | ≥ 80% | ≥ 80% | ≥ 80% | ≥ 80%
15 | Cc1cc(C2=CC(c3cc(Cl)cc(Cl)c3)(C(F)(F)F)OC2)ccc1C(=O)Nc1ccc2[nH]ncc2c1 (centres unmarked) [Compound A60] | ≥ 80% | ≥ 80% | ≥ 80% | ≥ 80%
16 | Cc1cc(C2=CC(c3cc(Cl)cc(Cl)c3)(C(F)(F)F)OC2)ccc1C(=O)Nc1ccc(-n2cccc2)cc1 (centres unmarked) [Compound A61] | ≥ 80% | – | – | –
17 | Cc1cc(C2=CC(c3cc(Cl)cc(Cl)c3)(C(F)(F)F)OC2)ccc1C(=O)Nc1ccc2c(C)cc(=O)oc2c1 (centres unmarked) [Compound A65] | ≥ 80% | – | – | –
18 | Cc1cc(C2=CC(c3cc(Cl)cc(Cl)c3)(C(F)(F)F)OC2)ccc1C(=O)Nc1ccc(S(=O)(=O)N(C)C)cc1 (centres unmarked) [Compound A66] | ≥ 80% | ≥ 80% | – | –
19 | Cc1cc(NC(=O)c2ccc(C3=CC(c4cc(Cl)cc(Cl)c4)(C(F)(F)F)OC3)cc2C)n(C)n1 (centres unmarked) [Compound A67] | – | ≥ 80% | ≥ 80% | ≥ 80%
20 | Cc1cc(O)nc(NC(=O)c2ccc(C3=CC(c4cc(Cl)cc(Cl)c4)(C(F)(F)F)OC3)cc2C)n1 (centres unmarked) [Compound A69] | ≥ 80% | ≥ 80% | ≥ 80% | –
21 | Cc1cc(C2=CC(c3cc(Cl)cc(Cl)c3)(C(F)(F)F)OC2)ccc1C(=O)Nc1ncnc2[nH]cnc12 (centres unmarked) [Compound A72] | – | – | – | ≥ 80%
22 | Cc1nnc(NC(=O)c2ccc(C3=CC(c4cc(Cl)cc(Cl)c4)(C(F)(F)F)OC3)cc2C)s1 (centres unmarked) [Compound A75] | ≥ 80% | – | – | –
23 | O=C(NCC(F)(F)F)c1ccc(C2=CC(c3cc(Cl)cc(Cl)c3)(C(F)(F)F)OC2)nc1 (centres unmarked) [Compound B1] | – | – | ≥ 80% | –

Row | Structure (SMILES) | pest or weed control at 200 ppm [1] | pest or weed control at 200 ppm [2] | pest or weed control at 200 ppm [3] | pest or weed control at 200 ppm [4]
24 | CCNC(=O)c1ccc(C2=CC(c3cc(Cl)cc(Cl)c3)(C(F)(F)F)OC2)nc1 (centres unmarked) [Compound B2] | ≥ 80% | – | – | –
25 | O=C(CNC(=O)c1ccc(C2=CC(c3cc(Cl)cc(Cl)c3)(C(F)(F)F)OC2)nc1)NCC(F)(F)F (centres unmarked) [Compound B5] | – | ≥ 80% | – | –
26 | O=C(NCCC(F)(F)F)c1ccc(C2=CC(c3cc(Cl)cc(Cl)c3)(C(F)(F)F)OC2)nc1 (centres unmarked) [Compound B6] | ≥ 80% | – | – | –
27 | CCC(C)NC(=O)c1ccc(C2=CC(c3cc(Cl)cc(Cl)c3)(C(F)(F)F)OC2)nc1 (centres unmarked) [Compound B7] | – | – | ≥ 80% | –
28 | O=C(NCC1CCCO1)c1ccc(C2=CC(c3cc(Cl)cc(Cl)c3)(C(F)(F)F)OC2)nc1 (centres unmarked) [Compound B8] | – | – | ≥ 80% | –
29 | COc1ccc(CNC(=O)c2ccc(C3=CC(c4cc(Cl)cc(Cl)c4)(C(F)(F)F)OC3)nc2)cc1 (centres unmarked) [Compound B12] | ≥ 80% | – | – | –
30 | O=C(NCc1ccc(Cl)nc1)c1ccc(C2=CC(c3cc(Cl)cc(Cl)c3)(C(F)(F)F)OC2)nc1 (centres unmarked) [Compound B14] | – | ≥ 80% | – | –
31 | CC1(NC(=O)c2ccc(C3=CC(c4cc(Cl)cc(Cl)c4)(C(F)(F)F)OC3)nc2)CSC1 (centres unmarked) [Compound B19] | ≥ 80% | – | – | –
32 | O=C(NC1CCC1)c1ccc(C2=CC(c3cc(Cl)cc(Cl)c3)(C(F)(F)F)OC2)nc1 (centres unmarked) [Compound B23] | – | – | ≥ 80% | –
33 | Cc1nc(C2=CC(c3cc(Cl)cc(Cl)c3)(C(F)(F)F)OC2)ccc1C(=O)NCCC(F)(F)F (centres unmarked) [Compound C6] | ≥ 80% | – | ≥ 80% | ≥ 80%
34 | Cc1nc(C2=CC(c3cc(Cl)cc(Cl)c3)(C(F)(F)F)OC2)ccc1C(=O)NCC1CCCO1 (centres unmarked) [Compound C8] | ≥ 80% | ≥ 80% | – | ≥ 80%
35 | Cc1nc(C2=CC(c3cc(Cl)cc(Cl)c3)(C(F)(F)F)OC2)ccc1C(=O)Nc1cccc(F)c1 (centres unmarked) [Compound C15] | – | ≥ 80% | ≥ 80% | ≥ 80%
36 | Cc1cc(NC(=O)c2ccc(C3=CC(c4cc(Cl)cc(Cl)c4)(C(F)(F)F)OC3)nc2C)n(C)n1 (centres unmarked) [Compound C16] | – | ≥ 80% | ≥ 80% | –
37 | CSCC(C)(C)NC(=O)c1ccc(C2=CC(c3cc(Cl)cc(Cl)c3)(C(F)(F)F)OC2)nc1C (centres unmarked) [Compound C18] | ≥ 80% | – | – | ≥ 80%
38 | CCCCNC(=O)c1ccc(C2=CC(c3cc(Cl)cc(Cl)c3)(C(F)(F)F)OC2=O)cc1C (centres unmarked) [Compound E3] | – | – | ≥ 80% | –
39 | Cc1cc(C2=CC(c3cc(Cl)cc(Cl)c3)(C(F)(F)F)OC2=O)ccc1C(=O)NCCC(F)(F)F (centres unmarked) [Compound E6] | – | – | ≥ 80% | ≥ 80%
40 | Cc1cc(C2=CC(c3cc(Cl)cc(Cl)c3)(C(F)(F)F)OC2=O)ccc1C(=O)NCc1ccccc1 (centres unmarked) [Compound E8] | – | – | – | ≥ 80%
41 | Cc1cc(C2=CC(c3cc(Cl)cc(Cl)c3)(C(F)(F)F)OC2=O)ccc1C(=O)NCc1ccccc1F (centres unmarked) [Compound E9] | – | – | ≥ 80% | –
42 | COc1ccc(CNC(=O)c2ccc(C3=CC(c4cc(Cl)cc(Cl)c4)(C(F)(F)F)OC3=O)cc2C)cc1 (centres unmarked) [Compound E11] | – | – | ≥ 80% | –
43 | Cc1cc(C2=CC(c3cc(Cl)cc(Cl)c3)(C(F)(F)F)OC2=O)ccc1C(=O)NCc1ccccn1 (centres unmarked) [Compound E13] | ≥ 80% | – | ≥ 80% | ≥ 80%
44 | Cc1csc(NC(=O)c2ccc(C3=CC(c4cc(Cl)cc(Cl)c4)(C(F)(F)F)OC3=O)cc2C)n1 (centres unmarked) [Compound E15] | ≥ 80% | – | – | ≥ 80%
45 | Cc1cc(C2=CC(c3cc(Cl)cc(Cl)c3)(C(F)(F)F)OC2=O)ccc1C(=O)NC1CSC1 (centres unmarked) [Compound E17] | ≥ 80% | – | – | –
46 | Cc1cc(C2=CC(c3cc(Cl)cc(Cl)c3)(C(F)(F)F)OC2=O)ccc1C(=O)NC1C[S+]([O-])C1 (centres unmarked) [Compound E19] | – | – | – | ≥ 80%
